The results in this text go back to patent US20160243136A1, “PHARMACEUTICAL FORMULATIONS CONTAINING MITOCHONDRIALLY TARGETED ANTIOXIDANTS” (Mitotech SA, priority 2013, published 2016).

In one assay the test system is Human neutrophils. As to the kind of experiment: f-MLP-stimulated neutrophil MMP-9 release by zymography. Conditions: 0.2 nM, 2 nM, and 200 nM; 1.5 hr pre-incubation; 1 nM f-MLP 30 min; vs vehicle control. The class given is cell-based. As for the experimental part:
Human neutrophils were isolated from anticoagulated blood of healthy donors. Neutrophils were pre-incubated with 0.2 nM, 2 nM, 20 nM, 200 nM, and 500 nM SkQ1 solution in RPMI-1640 medium supplemented with 10% fetal serum for 1.5 hr at 37° C. in 5% CO2. The cells were then stimulated with 1 nM N-formyl-methionine-leucine-phenylalanine (f-MLP) for 30 min. The supernatants from the cells were used to detect MMP-9 activity by zymography analysis (MMP-9 release was used to estimate tissue damage). The data from this assay was shown as means at least for 3 separate experiments.

For assay [1], the system named is Human endothelial cell line EA.hy926. The assay can be described thus: High-glucose endothelium damage, immunoblotting detection of VE-cadherin. The class given is cell-based. To be noted: 2 nM and 20 nM SkQ1 pre-incubation 4 d; 45 mM D-glucose 2 d; vs vehicle control. The text has this: Human endothelial cell line EA.hy926 (ATCC Collection; catalog number CRL-2922) was used as a model of the endothelium vessel damage occurring during inflammatory process and/or diabetes. This cell line is similar to primary HUVEC cell line (Edgell et al. (1983) PNAS, 80(12):3734-7; Edgell et al. (1990) In Vitro Cell Dev. Biol., 26(12):1167-72) and widely used as a relevant model for inflammation studies (Riesbeck et al. (1998) Clin. Vaccine Immunol., 5:5675-682).
Accordingly, human endothelial cells EA.hy926 were pre-incubated with 2 nM and 20 nM of SkQ1 solution in Dulbecco's Modified Eagle's Medium (DMEM) supplemented with 10% of fetal serum (Example 1) for 4 d. Cells were then incubated 2 d with DMEM medium containing 1% FBS and 5 mM D-glucose. The cells were then incubated 2 d with 45 mM D-glucose and were then used for immunoblotting detection of VE-cadherin.
(A western blot detects proteins with antibodies after separation by electrophoresis.)

In another assay the test system is rat model of APN. The assay can be described thus: In vivo rat model of acute pyelonephritis (APN), bacteria introduced in the bladder. Conditions: 7th day. The protocol:
An in vivo experimental model of APN was used where bacteria are introduced in the bladder of rat (Gupta et al. (1995) J. Med. Microbiol. 43:33-36). Experiments were performed on outbred white female rats (180-200 g) fed ad libitum. Animal protocols were approved by the Institutional Review Boards. Rats were anesthetized with chloral hydrate (300 mg/kg, intraperitoneally(ip)). The animals were infected intraurethrally using a soft Intramedic non-radio-opaque polyethylene catheter (Clay Adams, USA). The inoculum (5 ml per kg, 1×10^8 CFU/ml of rat fecal bacterial composition) was injected slowly to avoid any leakage […]. Control animals were untreated. The therapeutic protocol of SkQR1 used to treat this pathology was as follows: […], with subsequent injections of the same amount of SkQR1 at 12, 24, 36 and 48 hrs; in total, each animal received 500 nmol SkQR1 per kg. […]
Kidney mitochondria were isolated by homogenization and differential centrifugation in a medium containing 250 mM sucrose, 20 mM HEPES-KOH, 1 mM EGTA and 0.1% BSA, pH7.4. Total mitochondrial protein was determined using a bicinchoninic acid protein assay kit (Sigma-Aldrich, USA). The mitochondria from cultured kidney cells were isolated by the same protocol.
The ROS-sensitive fluorescent probe 2,7-DCF-DA (Molecular Probes, USA) dissolved in DMEM/F12 without bicarbonate (final concentration 10 μM) was added to renal cells (500 μl per well of 24-well plate, 2 ml per dish) and incubated for 15 min at 37° C. followed by a wash with DMEM/F12 without bicarbonate. MDA was determined as in (Mihara and Uchiyama (1978) Anal. Biochem. 86:271-8). Fluorescent probe, DAF-2-DA (Calbiochem, San Diego, Calif., USA) was used for NO determination in living cells. The procedure was the same as for 2,7-DCF-DA. The nitrite/nitrate concentration (as products of NO oxidation) in culture media was determined using Nitrite/Nitrate Assay Kit (Sigma-Aldrich, USA). TNFα was determined using the kit Rat TNFα ELISA Ready-SET-Go (Ebioscience, USA).
The kidney was isolated immediately after sacrificing the animal and perfused with ice-cold PBS. It was then fixed in a 10% neutral buffered formalin solution, embedded in paraffin and used for histopathological examination. Five micrometer thick sections were cut, deparaffinized, hydrated, and stained with hematoxylin and eosin. The renal sections were examined in blinded fashion for inflammation and infiltration by leukocytes in the kidneys of all treated animals. A minimum of 10 fields for each kidney slide were examined and scored for pathologic severity.
The manifestation of inflammatory indicators (i.e., a number of infiltrated leukocytes in every layer and the presence of abscesses) under APN was evaluated using the following scale: 0, none; 1, 5-50 leukocytes in the view field; […]; 4, abscesses with pus-necrotic content. The distribution of inflammatory changes (i.e., comparative analysis of infiltration and abscesses) was evaluated by the following criteria: 0, none in any layer; 1, infiltration in the medullar layer; 2, infiltration reaching the cortex.
Kidney homogenates for MPO determination were centrifuged at 20000 g 15 min, the pellets were resuspended in 50 mM K-phosphate buffer containing 0.5% CTAB. Resulted samples were frozen and thawed three times and then centrifuged at 10600 g 10 min. Supernatants were analyzed for MPO activity in chromogenic reaction with o-phenylenediamine (OPD). 100 μl sample was mixed with 100 μl substrate buffer (25 mM Na-citrate, 50 mM Na-phosphate, 0.45 mg/ml OPD, 0.1% H2O2, pH 5.0) and was incubated 15 min at room temperature and then OD was detected at 492 nm.
Samples of kidney homogenates were loaded onto 15% Tris-glycine polyacrylamide gels (10-20 μg of total protein per lane). After electrophoresis, gels were blotted onto PVDF membranes (Amersham Pharmacia Biotech, UK). […]

Assay [2] relates to Wistar rats with experimental hepatitis. As to the kind of experiment: D-galactosamin-induced experimental hepatitis. The assay is classed as in vivo, rat. To be noted: 7 d before induction, control median 2. As for the experimental part: Experimental hepatitis was induced in 8-10 weeks old Wistar rats weighing […] by intraperitoneal injection of 500 mg/kg D-galactosamin in 0.9% NaCl. SkQ1 was administered by gavage in aqueous solution at doses of 10 nmol/kg/day, 50 nmol/kg/day, 250 nmol/kg/day, and 1250 nmol/kg/day starting 7 d before induction of hepatitis and ending at the day of induction. The animals were sacrificed 24 hrs after the induction of hepatitis. Inflammation score was estimated for each animal on a 3-point scale by blind examination of hematoxylin-eosin stained liver sections.

In the case of `CC1=C(C)C(=O)C(CCCCCCCCCC[P+](c2ccccc2)(c2ccccc2)c2ccccc2)=CC1=O` [SkQ1, 10-(6-plastoquinonyl)decyl-triphenylphosphonium], in the assay on Human neutrophils, the “neutrophil-MMP-9 activation induced by f-MLP” value is reported as “prevented”. The “VE-cadherin downregulation induced by high glucose” value in assay [1] was “prevents”. Besides, the “leukocyte concentration in blood” value in the assay with rat model of APN (SkQ1 100 nmol/kg ip on 3rd day) is “significantly reduced”. Moreover, in the assay on rat model of APN (SkQ1 100 nmol/kg ip on 3rd day after induction, vs animals not receiving SkQ1), the “neutrophils concentration in blood” value is recorded as “twice as low”. The “MPO activity in renal tissue (inflammation of kidney tissue)” value with rat model of APN (SkQ1 ip on third day after induction) is given as “significant suppression”. Further, the “inflammation score (3-point scale, liver sections)” value in assay [2] (50 nmol/kg/day by gavage, p<0.01) is given as 1.5. The “inflammation score (median, 3-point scale, liver sections)” value in assay [2] (1250 nmol/kg/day by gavage, p<0.001) was found to be 1.
